Laboratory results: ChEMBL document CHEMBL4346657, “Anticancer activity, dual prooxidant/antioxidant effect and apoptosis induction profile of new bichalcophene-5-carboxamidines” (Eur J Med Chem, 2019)

Assays:
Erythrocyte = assay: Haemolytic activity in human erythrocytes assessed as induction of hemolysis at 0.625 mM after 30 mins relative to H202; format: cell-based; conditions: erythrocyte, 0.5 h, 625 µM
786-0 = assay: Antiproliferative activity against human 786-0 cells assessed as growth inhibition after 48 hrs by sulforhodamine B assay; format: functional; conditions: 786-0, 48 h
COLO 205 = assay: Antiproliferative activity against human COLO205 cells assessed as growth inhibition after 48 hrs by sulforhodamine B assay; format: functional; conditions: COLO 205, 48 h
UO-31 = assay: Antiproliferative activity against human UO31 cells assessed as growth inhibition after 48 hrs by sulforhodamine B assay; format: functional; conditions: UO-31, 48 h
HCT-15 = assay: Antiproliferative activity against human HCT15 cells assessed as growth inhibition after 48 hrs by sulforhodamine B assay; format: functional; conditions: HCT-15, 48 h
KM12 = assay: Antiproliferative activity against human KM12 cells assessed as growth inhibition after 48 hrs by sulforhodamine B assay; format: functional; conditions: KM12, 48 h
PC-3 = assay: Antiproliferative activity against human PC3 cells assessed as growth inhibition after 48 hrs by sulforhodamine B assay; format: functional; conditions: PC-3, 48 h
CCRF-CEM = assay: Antiproliferative activity against human CCRF-CEM cells assessed as growth inhibition after 48 hrs by sulforhodamine B assay; format: functional
A498 = assay: Antiproliferative activity against human A498 cells assessed as growth inhibition after 48 hrs by sulforhodamine B assay; format: functional; conditions: A498, 48 h
K562 = assay: Antiproliferative activity against human K562 cells assessed as growth inhibition after 48 hrs by sulforhodamine B assay; format: functional, cell-based; conditions: K562, 48 h
Hs-578T = assay: Antiproliferative activity against human Hs578T cells assessed as growth inhibition after 48 hrs by sulforhodamine B assay; format: functional
IGROV-1 = assay: Antiproliferative activity against human IGROV1 cells assessed as growth inhibition after 48 hrs by sulforhodamine B assay; format: functional; conditions: IGROV-1, 48 h
MDA-MB-435 = assay: Antiproliferative activity against human MDA-MB-435 cells assessed as growth inhibition after 48 hrs by sulforhodamine B assay; format: functional; conditions: MDA-MB-435, 48 h
[1] = tested on: Panel NCI-60 (60 carcinoma cell lines); assay: Antiproliferative activity against human NCI60 cells assessed as growth inhibition after 48 hrs by sulforhodamine B assay; format: functional
HCT-116 [2] = assay: Induction of apoptosis in human HCT116 cells assessed as increase in p53 mRNA expression at 100 nM after 6 hrs hrs by SYBR green dye-based qRT-PCR analysis relative to control; format: functional
[3] = Antioxidant activity assessed as ABTS radical scavenging activity by spectrophotometric method relative to ascorbic acid; format: functional
[4] = Selectivity index, ratio of IC50 for human WI38 cells to GI50 for human NCI60 cells
NCI-H322M = assay: Antiproliferative activity against human NCI-H322M cells assessed as growth inhibition after 48 hrs by sulforhodamine B assay; format: functional
RXF 393 = assay: Antiproliferative activity against human RXF393 cells assessed as growth inhibition after 48 hrs by sulforhodamine B assay; format: functional; conditions: RXF 393, 48 h
M14 = assay: Antiproliferative activity against human M14 cells assessed as growth inhibition after 48 hrs by sulforhodamine B assay; format: functional; conditions: M14, 48 h
SK-MEL-5 = assay: Antiproliferative activity against human SK-MEL-5 cells assessed as growth inhibition after 48 hrs by sulforhodamine B assay; format: functional; conditions: SK-MEL-5, 48 h
NCI-H460 = assay: Antiproliferative activity against human NCI-H460 cells assessed as growth inhibition after 48 hrs by sulforhodamine B assay; format: functional; conditions: NCI-H460, 48 h
SN12C = assay: Antiproliferative activity against human SN12C cells assessed as growth inhibition after 48 hrs by sulforhodamine B assay; format: functional
EKVX = assay: Antiproliferative activity against human EKVX cells assessed as growth inhibition after 48 hrs by sulforhodamine B assay; format: functional
SF-295 = assay: Antiproliferative activity against human SF295 cells assessed as growth inhibition after 48 hrs by sulforhodamine B assay; format: functional; conditions: SF-295, 48 h
NCI-H522 = assay: Antiproliferative activity against human NCI-H522 cells assessed as growth inhibition after 48 hrs by sulforhodamine B assay; format: functional; conditions: NCI-H522, 48 h
SNB-75 = assay: Antiproliferative activity against human SNB75 cells assessed as growth inhibition after 48 hrs by sulforhodamine B assay; format: functional; conditions: SNB-75, 48 h
WI-38 = assay: Cytotoxicity activity against human WI38 cells assessed as reduction in cell viability measured after 48 hrs by MTT assay; format: cell-based; conditions: WI-38, 48 h
CAKI-1 = assay: Antiproliferative activity against human CAKI-1 cells assessed as growth inhibition after 48 hrs by sulforhodamine B assay; format: functional; conditions: CAKI-1, 48 h
HL-60(TB) = assay: Antiproliferative activity against human HL-60(TB) cells assessed as growth inhibition after 48 hrs by sulforhodamine B assay; format: functional; conditions: HL-60, 48 h
NCI/ADR-RES = assay: Antiproliferative activity against human NCI-ADR-RES cells assessed as growth inhibition after 48 hrs by sulforhodamine B assay; format: functional
OVCAR-3 = assay: Antiproliferative activity against human OVCAR3 cells assessed as growth inhibition after 48 hrs by sulforhodamine B assay; format: functional; conditions: OVCAR-3, 48 h
SK-MEL-28 = assay: Antiproliferative activity against human SK-MEL-28 cells assessed as growth inhibition after 48 hrs by sulforhodamine B assay; format: functional; conditions: SK-MEL-28, 48 h
[5] = Haemolytic activity in human erythrocytes assessed as induction of hemolysis at 5 mM after 30 mins relative to H202; format: cell-based, Erythrocyte; conditions: read-out: Activity
BT-549 = assay: Antiproliferative activity against human BT549 cells assessed as growth inhibition after 48 hrs by sulforhodamine B assay; format: functional; conditions: BT-549, 48 h
MDA-MB-231 = assay: Antiproliferative activity against human MDA-MB-231/ATCC cells assessed as growth inhibition after 48 hrs by sulforhodamine B assay; format: functional; conditions: MDA-MB-231, 48 h
HCT-116 [6] = assay: […] in CDK1 mRNA expression in human HCT116 cells at 100 nM after 6 hrs hrs by SYBR green dye-based qRT-PCR analysis relative to control; format: functional
NCI-H226 = assay: Antiproliferative activity against human NCI-H226 cells assessed as growth inhibition after 48 hrs by sulforhodamine B assay; format: functional; conditions: NCI-H226, 48 h
OVCAR-5 = assay: Antiproliferative activity against human OVCAR5 cells assessed as growth inhibition after 48 hrs by sulforhodamine B assay; format: functional; conditions: OVCAR-5, 48 h
ACHN = assay: Antiproliferative activity against human ACHN cells assessed as growth inhibition after 48 hrs by sulforhodamine B assay; format: functional
SNB-19 = assay: Antiproliferative activity against human SNB19 cells assessed as growth inhibition after 48 hrs by sulforhodamine B assay; format: functional; conditions: SNB-19, 48 h
SK-MEL-2 = assay: Antiproliferative activity against human SK-MEL-2 cells assessed as growth inhibition after 48 hrs by sulforhodamine B assay; format: functional; conditions: SK-MEL-2, 48 h

N=C(N)c1ccc(-c2ccc(-c3cncc4ccccc34)s2)s1
Activity (Erythrocyte): Non-Toxic
GI50 (786-0): 1590 nM
GI50 (COLO 205): 750 nM
GI50 (UO-31): 1390 nM
GI50 (HCT-15): 980 nM
GI50 (KM12): 1510 nM
GI50 (PC-3): 1560 nM
GI50 (CCRF-CEM): 360 nM
GI50 (A498): 1690 nM
IC50 (K562; read-out: IC50): 0.24 µM
IC50 (K562; read-out: pIC50 (converted)): 38000 µM
GI50 (Hs-578T): 2220 nM
GI50 (IGROV-1): 1910 nM
GI50 (MDA-MB-435): 2030 nM
GI50 [1]: 1340 nM
LC50 [1]: 77.6 µM
TGI [1]: 3.23 µM
fold change (FC) (HCT-116 [2]): 4.67
fold change (FC) [3]: 0.8
Selectivity Index [4]: >74.6
GI50 (NCI-H322M): 1660 nM
GI50 (RXF 393): 1600 nM
GI50 (M14): 1620 nM
GI50 (SK-MEL-5): 1740 nM
GI50 (NCI-H460): 880 nM
GI50 (SN12C): 1800 nM
GI50 (EKVX): 1330 nM
GI50 (SF-295): 1800 nM
GI50 (NCI-H522): 1650 nM
GI50 (SNB-75): 1930 nM
IC50 (WI-38): > 100 µM
GI50 (CAKI-1): 1600 nM
GI50 (HL-60(TB)): 1920 nM
GI50 (NCI/ADR-RES): 1680 nM
GI50 (OVCAR-3): 1650 nM
GI50 (SK-MEL-28): 1640 nM
hemolysis at 0.5 h, 5000 µM [5]: 4%
GI50 (BT-549): 1510 nM
GI50 (MDA-MB-231): 1350 nM
fold change (FC) (HCT-116 [6]): 0.16
GI50 (NCI-H226): 1910 nM
GI50 (OVCAR-5): 1710 nM
GI50 (ACHN): 1480 nM
GI50 (SNB-19): 2170 nM
GI50 (SK-MEL-2): 2000 nM

N=C(N)c1ccc(-c2ccc(-c3ccc(F)cc3)o2)o1
Activity (Erythrocyte): Non-Toxic
GI50 (786-0): 1660 nM
GI50 (COLO 205): 1600 nM
GI50 (UO-31): 1430 nM
GI50 (HCT-15): 630 nM
GI50 (KM12): 1440 nM
GI50 (PC-3): 1220 nM
GI50 (CCRF-CEM): 1840 nM
GI50 (A498): 1900 nM
IC50 (K562; read-out: IC50): 0.49 µM
GI50 (Hs-578T): 1950 nM
GI50 (IGROV-1): 1580 nM
GI50 (MDA-MB-435): 350 nM
GI50 [1]: 1470 nM
LC50 [1]: 9.55 µM
TGI [1]: 3.46 µM
fold change (FC) (HCT-116 [2]): 0.96
fold change (FC) [3]: 0.1
Selectivity Index [4]: 7.2
GI50 (NCI-H322M): 1600 nM
GI50 (RXF 393): 1600 nM
GI50 (M14): 1230 nM
GI50 (SK-MEL-5): 1560 nM
GI50 (NCI-H460): 1760 nM
GI50 (SN12C): 1800 nM
GI50 (EKVX): 1350 nM
GI50 (SF-295): 1510 nM
GI50 (NCI-H522): 1360 nM
GI50 (SNB-75): 1550 nM
IC50 (WI-38): 10.6 µM
GI50 (CAKI-1): 1710 nM
GI50 (HL-60(TB)): 1800 nM
GI50 (NCI/ADR-RES): 1680 nM
GI50 (OVCAR-3): 1840 nM
GI50 (SK-MEL-28): 1630 nM
hemolysis at 0.5 h, 5000 µM [5]: 66.3%
GI50 (BT-549): 2270 nM
GI50 (MDA-MB-231): 1570 nM
fold change (FC) (HCT-116 [6]): 1.07
GI50 (NCI-H226): 2820 nM
GI50 (OVCAR-5): 1660 nM
GI50 (ACHN): 1600 nM
GI50 (SNB-19): 1730 nM
GI50 (SK-MEL-2): 1760 nM
